Measurements as given in paper PMC3816012 (Structure (London, England : 1993), 2013).

Molecular target: IcmR-IcmQ (Legionella pneumophila, UniProt O54635)

Compound: NC(=O)c1ccc[n+]([C@@H]2O[C@H](COP(=O)(O)OP(=O)(O)OC[C@H]3O[C@@H](n4cnc5c(N)ncnc54)[C@H](O)[C@@H]3O)[C@@H](O)[C@H]2O)c1 [NAD+]
- filter binding assay, 32P-labelled NAD+: A similar binding profile was observed for wild type IcmR-IcmQ complexes.
